Experimental data taken from PMC9688344, “[^225Ac]Ac-SibuDAB for Targeted Alpha Therapy of Prostate Cancer: Preclinical Evaluation and Comparison with [^225Ac]Ac-PSMA-617” (Cancers, 2022).

System: PSMA-negative PC-3 flu cells
Assay: Cell uptake in PSMA-negative cells
Assay type: cell-based

| Compound | Cell uptake |
| --- | --- |
| O=C([O-])CN1CCN(CC(=O)[O-])CCN(CC(=O)NCC2CCC(C(=O)NC(Cc3ccc4ccccc4c3)C(=O)NCCCCC(NC(=O)NC(CCC(=O)O)C(=O)O)C(=O)O)CC2)CCN(CC(=O)[O-])CC1.[225Ac+3] (centres unmarked) [[^225Ac]Ac-PSMA-617] | < 1% |
| CC(C)Cc1ccc(C(C)C(=O)NC(CCN)C(=O)NCCCCC(NC(=O)CN2CCN(CC(=O)[O-])CCN(CC(=O)[O-])CCN(CC(=O)[O-])CC2)C(=O)NCC2CCC(C(=O)NC(Cc3ccc4ccccc4c3)C(=O)NCCCCC(NC(=O)NC(CCC(=O)O)C(=O)O)C(=O)O)CC2)cc1.[225Ac+3] (centres unmarked) [[^225Ac]Ac-SibuDAB] | < 1% |
